Data: patent publication US20170320870A1 (Medical Research Council Technology, priority 2009, published 2017)

Target: T1, LRRK2 wild type (recombinant human, catalytic domain amino acids 970-2527, GST-tagged) (Homo sapiens, UniProt Q5S007)
T1 construct: The wild type used was recombinant human, catalytic domain (amino acids 970-2527) GST-tagged, expressed in insect cells; GST; purchased Invitrogen Corporation PV4873; host or cells: insect cells
Experiment: LRRK2 wild type protein kinase assay ([γ-33P] ATP, peptide substrate […]), IC50
Type: biochemical
Details: LRRK2 (variant not given); read-out: Potency score, LRRK2 IC50
How it was run: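 IC50 derived from duplicate 10-point titrations, with 33P incorporation into a 100 μM peptide counted after P81 filter capture. Roughly 5 nM unactivated kinase reacted with Mg/[γ-33P]ATP for 180 min at room temperature (~21 °C), pH 7.5 Tris buffer containing 10 mM MgCl2, EGTA and DTT; acid-quenched.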

T1 sequence (Q5S007 970-2527): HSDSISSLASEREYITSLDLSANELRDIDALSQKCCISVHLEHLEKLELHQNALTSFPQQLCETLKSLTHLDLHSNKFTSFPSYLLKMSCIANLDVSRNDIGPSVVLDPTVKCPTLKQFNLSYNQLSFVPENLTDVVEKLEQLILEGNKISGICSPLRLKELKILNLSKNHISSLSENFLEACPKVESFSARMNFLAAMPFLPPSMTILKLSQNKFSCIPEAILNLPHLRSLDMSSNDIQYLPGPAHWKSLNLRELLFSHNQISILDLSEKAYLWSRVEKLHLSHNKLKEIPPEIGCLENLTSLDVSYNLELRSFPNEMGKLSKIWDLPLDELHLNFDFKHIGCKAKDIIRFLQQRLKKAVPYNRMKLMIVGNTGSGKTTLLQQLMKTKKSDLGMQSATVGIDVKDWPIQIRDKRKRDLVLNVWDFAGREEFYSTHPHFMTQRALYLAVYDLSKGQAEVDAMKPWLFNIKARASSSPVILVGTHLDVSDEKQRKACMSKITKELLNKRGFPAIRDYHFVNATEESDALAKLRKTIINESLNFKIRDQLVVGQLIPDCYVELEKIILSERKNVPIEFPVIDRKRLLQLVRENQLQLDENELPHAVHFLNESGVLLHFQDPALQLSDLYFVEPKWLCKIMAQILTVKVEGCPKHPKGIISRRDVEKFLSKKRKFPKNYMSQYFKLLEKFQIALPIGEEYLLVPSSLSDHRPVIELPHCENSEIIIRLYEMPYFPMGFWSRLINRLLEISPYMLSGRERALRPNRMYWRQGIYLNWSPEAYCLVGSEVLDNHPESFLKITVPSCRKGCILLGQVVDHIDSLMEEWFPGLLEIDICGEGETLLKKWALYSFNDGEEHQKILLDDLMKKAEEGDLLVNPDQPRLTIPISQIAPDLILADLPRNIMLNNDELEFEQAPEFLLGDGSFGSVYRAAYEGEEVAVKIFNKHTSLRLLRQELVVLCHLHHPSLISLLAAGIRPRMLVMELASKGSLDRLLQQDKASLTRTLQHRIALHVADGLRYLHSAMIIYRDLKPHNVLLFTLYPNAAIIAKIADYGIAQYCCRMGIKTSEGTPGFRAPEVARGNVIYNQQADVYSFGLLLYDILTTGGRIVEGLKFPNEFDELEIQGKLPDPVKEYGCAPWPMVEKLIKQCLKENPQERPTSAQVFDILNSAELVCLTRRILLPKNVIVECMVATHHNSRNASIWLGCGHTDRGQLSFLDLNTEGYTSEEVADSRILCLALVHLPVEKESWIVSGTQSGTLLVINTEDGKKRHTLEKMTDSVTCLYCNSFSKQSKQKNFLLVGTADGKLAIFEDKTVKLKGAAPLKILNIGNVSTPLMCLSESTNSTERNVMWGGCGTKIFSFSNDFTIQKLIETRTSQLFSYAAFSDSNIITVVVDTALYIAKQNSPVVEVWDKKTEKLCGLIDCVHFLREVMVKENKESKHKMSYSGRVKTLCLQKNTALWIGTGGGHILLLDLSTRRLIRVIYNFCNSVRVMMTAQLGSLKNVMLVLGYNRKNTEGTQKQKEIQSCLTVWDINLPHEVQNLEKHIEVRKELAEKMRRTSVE

Row | IC50 | Compound
1 | < 100 nM | O=C(Nc1ccc(CCc2n[nH]c3ccnc(NC4CCCCC4)c23)cc1)c1cccc(F)c1 [Example 275, N-{4-[2-(4-Cyclohexylamino-1H-pyrazolo[4,3-c]pyridin-3-yl)-ethyl]-phenyl}-3-fluoro-benzamide]
2 | < 100 nM | N#Cc1cccc(C(=O)Nc2ccc(CCc3n[nH]c4ccnc(NC5CCCCC5)c34)cc2)c1 [Example 276, 3-Cyano-N-{4-[2-(4-cyclohexylamino-1H-pyrazolo[4,3-c]pyridin-3-yl)-ethyl]-phenyl}-benzamide]
3 | < 100 nM | Cc1n[nH]c2ccnc(OC(C)C)c12 [Example 277, 4-isopropoxy-3-methyl-1H-pyrazolo[4,3-c]pyridine]
4 | 100 to 1000 nM | Cc1n[nH]c2ccnc(OCC3CCCCC3)c12 [Example 278, 4-Cyclohexyl-methoxy-3-methyl-1H-pyrazolo[4,3-c] pyridine]
5 | 100 to 1000 nM | Cc1n[nH]c2ccnc(OCC(F)(F)F)c12 [Example 279, 3-Methyl-4-(2,2,2-trifluoro-ethoxy)-1H-pyrazolo [4,3-c]pyridine]
6 | < 100 nM | Cc1n[nH]c2ccnc(OC3CCCCCC3)c12 [Example 283, 4-Cycloheptyloxy-3-methyl-1H-pyrazolo[4,3-c] pyridine]
7 | < 100 nM | Cc1n[nH]c2ccnc(O[C@H](C)C(C)C)c12 [Example 288, 4-((R)-1,2-Dimethyl-propoxy)-3-methyl-1H-pyrazolo [4,3-c]pyridine]
8 | 100 to 1000 nM | Cc1n[nH]c2ccnc(OC3CCCC3(C)C)c12 (centres unmarked) [Example 289, 4-(2,2-Dimethyl-cyclopentyloxy)-3-methyl-1H-pyrazolo[4,3-c]pyridine]
9 | 100 to 1000 nM | Cc1n[nH]c2ccnc(OCc3ccccc3)c12 [Example 290, 4-Benzyloxy-3-methyl-1H-pyrazolo[4,3-c]pyridine]
10 | 100 to 1000 nM | Cc1n[nH]c2ccnc(O[C@@H](C)C(C)C)c12 [Example 292, 4-((S)-1,2-Dimethyl-propoxy)-3-methyl-1H-pyrazolo [4,3-c]pyridine]
11 | < 100 nM | Cc1n[nH]c2ccnc(O[C@H]3CC[C@H](C)CC3)c12 [Example 294, Trans-3-Methyl-4-(4-methyl-cyclohexyloxy)-1H-pyrazolo[4,3-c]pyridine]
12 | 100 to 1000 nM | Cc1n[nH]c2ccnc(OCCC(F)(F)F)c12 [Example 295, 3-Methyl-4-(3,3,3-trifluoro-propoxy)-1H-pyrazolo[4,3-c]pyridine]
13 | 100 to 1000 nM | Cc1n[nH]c2ccnc(O[C@@H]3CCOC3)c12 [Example 297, 3-Methyl-4-[(R)-(tetrahydro-furan-3-yl)oxy]-1H-pyrazolo[4,3-c]pyridine]
14 | < 100 nM | Cc1n[nH]c2ccnc(O[C@H](C)Cc3ccccc3)c12 [Example 299, 3-Methyl-4-((R)-1-methyl-2-phenyl-ethoxy)-1H-pyrazolo[4,3-c]pyridine]
15 | 100 to 1000 nM | Cc1n[nH]c2ccnc(O[C@@H](C)Cc3ccccc3)c12 [Example 300, 3-Methyl-4-((S)-1-methyl-2-phenyl-ethoxy)-1H-pyrazolo[4,3-c]pyridine]
16 | 1000 to 10000 nM | Cc1n[nH]c2ccnc(NCCCO)c12 [Example 301, 3-(3-Methyl-1H-pyrazolo[4,3-c]pyridin-4-ylamino)-propan-1-ol]
17 | 1000 to 10000 nM | CC(=O)NCCNc1nccc2[nH]nc(C)c12 [Example 302, N-[2-(3-Methyl-1H-pyrazolo[4,3-c]pyridin-4-ylamino)-ethyl]-acetamide]
18 | 1000 to 10000 nM | Cc1n[nH]c2ccnc(NCc3ccco3)c12 [Example 303, Furan-2-ylmethyl-(3-methyl-1H-pyrazolo[4,3-c]pyridin-4-yl)-amine]
19 | 1000 to 10000 nM | Cc1n[nH]c2ccnc(NCC3CCCO3)c12 (centres unmarked) [Example 304, (3-Methyl-1H-pyrazolo[4,3-c]pyridin-4-yl)-(tetrahydro-furan-2-ylmethyl)-amine]
20 | 100 to 1000 nM | Cc1n[nH]c2ccnc(Nc3ccc(Cl)c(Cl)c3)c12 [Example 305, (3,4-Dichloro-phenyl)-(3-methyl-1H-pyrazolo[4,3-c]pyridin-4-yl)-amine]
21 | 100 to 1000 nM | Cc1n[nH]c2ccnc(Nc3ccc(Cl)cc3Cl)c12 [Example 306, (2,4-Dichloro-phenyl)-(3-methyl-1H-pyrazolo[4,3-c]pyridin-4-yl)-amine]
22 | 100 to 1000 nM | Cc1n[nH]c2ccnc(Nc3ccc(F)c(Cl)c3)c12 [Example 307, (3-Chloro-4-fluoro-phenyl)-(3-methyl-1H-pyrazolo[4,3-c]pyridin-4-yl)-amine]

Row | IC50 | Compound
23 | 100 to 1000 nM | Cc1n[nH]c2ccnc(Nc3cc(F)ccc3F)c12 [Example 308, (2,5-Difluoro-phenyl)-(3-methyl-1H-pyrazolo[4,3-c]pyridin-4-yl)-amine]
24 | 100 to 1000 nM | Cc1n[nH]c2ccnc(Nc3ccccc3Cl)c12 [Example 309, (2-Chloro-phenyl)-(3-methyl-1H-pyrazolo[4,3-c]pyridin-4-yl)-amine]
25 | 100 to 1000 nM | Cc1n[nH]c2ccnc(Nc3ccc(Cl)cc3)c12 [Example 310, (4-Chloro-phenyl)-(3-methyl-1H-pyrazolo[4,3-c]pyridin-4-yl)-amine]
26 | 100 to 1000 nM | Cc1n[nH]c2ccnc(Nc3ccc(F)cc3)c12 [Example 311, (4-Fluoro-phenyl)-(3-methyl-1H-pyrazolo[4,3-c]pyridin-4-yl)-amine]
27 | 1000 to 10000 nM | Cc1n[nH]c2ccnc(NCc3ccccn3)c12 [Example 312, (3-Methyl-1H-pyrazolo[4,3-c]pyridin-4-yl)-pyridin-2-ylmethyl-amine]
28 | 100 to 1000 nM | Cc1n[nH]c2ccnc(Nc3ccc4ncsc4c3)c12 [Example 313, Benzothiazol-6-yl-(3-methyl-1H-pyrazolo[4,3-c]pyridin-4-yl)-amine]
29 | 1000 to 10000 nM | Cc1n[nH]c2ccnc(NCc3cccc(Cl)c3)c12 [Example 314, (3-Chloro-benzyl)-(3-methyl-1H-pyrazolo[4,3-c]pyridin-4-yl)-amine]
30 | 100 to 1000 nM | Cc1n[nH]c2ccnc(NCc3ccccc3Cl)c12 [Example 315, (2-Chloro-benzyl)-(3-methyl-1H-pyrazolo[4,3-c]pyridin-4-yl)-amine]
31 | 1000 to 10000 nM | Cc1n[nH]c2ccnc(NCc3ccc(F)cc3)c12 [Example 316, (4-Fluoro-benzyl)-(3-methyl-1H-pyrazolo[4,3-c]pyridin-4-yl)-amine]
32 | 1000 to 10000 nM | Cc1n[nH]c2ccnc(NCc3cccc(F)c3)c12 [Example 317, (3-Fluoro-benzyl)-(3-methyl-1H-pyrazolo[4,3-c]pyridin-4-yl)-amine]
33 | < 100 nM | Cc1ccc(Nc2nccc3[nH]nc(C)c23)cc1 [Example 318, (4-Methyl-phenyl)-(3-methyl-1H-pyrazolo[4,3-c]pyridin-4-yl)-amine]
34 | 100 to 1000 nM | Cc1cccc(Nc2nccc3[nH]nc(C)c23)c1 [Example 319, (3-Methyl-phenyl)-(3-methyl-1H-pyrazolo[4,3-c]pyridin-4-yl)-amine]
35 | 100 to 1000 nM | Cc1ccccc1Nc1nccc2[nH]nc(C)c12 [Example 320, (2-Methyl-phenyl)-(3-methyl-1H-pyrazolo[4,3-c]pyridin-4-yl)-amine]
36 | 100 to 1000 nM | Cc1n[nH]c2ccnc(Nc3cccc(CO)c3)c12 [Example 321, [3-(3-Methyl-1H-pyrazolo[4,3-c]pyridin-4-ylamino)-phenyl]-methanol]
37 | 1000 to 10000 nM | Cc1n[nH]c2ccnc(Nc3ccc(S(C)(=O)=O)cc3)c12 [Example 322, (4-Methanesulfonyl-phenyl)-(3-methyl-1H-pyrazolo[4,3-c]pyridin-4-yl)-amine]
38 | 1000 to 10000 nM | Cc1cc(C)n(CCNc2nccc3[nH]nc(C)c23)n1 [Example 323, [2-(3,5-Dimethyl-pyrazol-1-yl)-ethyl]-(3-methyl-1H-pyrazolo[4,3-c]pyridin-4-yl)-amine]
39 | 1000 to 10000 nM | Cc1n[nH]c2ccnc(NCCCN3CCCC3=O)c12 [Example 324, 1-[3-(3-Methyl-1H-pyrazolo[4,3-c]pyridin-4-ylamino)-propyl]-pyrrolidin-2-one]
40 | 1000 to 10000 nM | Cc1n[nH]c2ccnc(NCC3CCCCC3)c12 [Example 325, Cyclohexylmethyl-(3-methyl-1H-pyrazolo[4,3-c]pyridin-4-yl)-amine]
41 | 1000 to 10000 nM | Cc1n[nH]c2ccnc(NCc3ccc(C(F)(F)F)cc3)c12 [Example 326, (3-Methyl-1H-pyrazolo[4,3-c]pyridin-4-yl)-4-(4-trifluoromethyl-benzyl)-amine]
42 | 1000 to 10000 nM | Cc1n[nH]c2ccnc(NCc3ccc(C#N)cc3)c12 [Example 327, 4-[(3-Methyl-1H-pyrazolo[4,3-c]pyridin-4-ylamino)-methyl]-benzonitrile]
43 | 1000 to 10000 nM | Cc1nc2cc(Nc3nccc4[nH]nc(C)c34)ccc2s1 [Example 328, (2-Methyl-benzothiazol-5-yl)-(3-methyl-1H-pyrazolo[4,3-c]pyridin-4-yl)-amine]

Row | Compound | IC50
44 | Cc1n[nH]c2ccnc(OCC(C)C)c12 [Example 280, 4-Isobutoxy-3-methyl-1H-pyrazolo[4,3-c]pyridine] | < 100 nM
45 | Cc1n[nH]c2ccnc(OC3CCC3)c12 [Example 281, 4-Cyclobutoxy-3-methyl-1H-pyrazolo[4,3-c]pyridine] | 100 to 1000 nM
46 | Cc1n[nH]c2ccnc(OCCC(C)C)c12 [Example 282, 3-Methyl-4-(3-methyl-butoxy)-1H-pyrazolo[4,3-c] pyridine] | 100 to 1000 nM
47 | CC[C@H](C)COc1nccc2[nH]nc(C)c12 [Example 284, 3-Methyl-4-((S)-2-methyl-butoxy)-1H-pyrazolo[4,3-c]pyridine] | < 100 nM
48 | CCC[C@H](C)Oc1nccc2[nH]nc(C)c12 [Example 285, 3-Methyl-4-((S)-1-methyl-butoxy)-1H-pyrazolo[4,3-c]pyridine] | 100 to 1000 nM
49 | CCC[C@@H](C)Oc1nccc2[nH]nc(C)c12 [Example 286, 3-Methyl-4-((R)-1-methyl-butoxy)-1H-pyrazolo[4,3-c]pyridine] | 100 to 1000 nM
50 | CO[C@@H](C)COc1nccc2[nH]nc(C)c12 [Example 287] | 1000 to 10000 nM
